{"source": "patent US7795498B2", "about": "“Use of AtBG1 gene for the generation of transgenic plants with increased resistance to various abiotic stress” (Postech Foundation, priority 2004, dated 2010)", "molecules": {"B1": {"name": "AtBG1:HA: HA (hemagglutinin) tagged wild type AtBG1, Arabidopsis thaliana β-glucosidase 1 (protein)", "chain": "QGPVCGAGLPDKFSRLNFPEGFIWGTATAAFQVEGAVNEGCRGPSMWDTFTKKFPHRCENHNADVAVDFYHRYKEDIQLMKDLNTDAFRLSIAWPRIFPHGRMSKGISKVGVQFYHDLIDELLKNNIIPLVTVFHWDTPQDLEDEYGGFLSGRIVQDFTEYANFTFHEYGHKVKHWITFNEPWVFSRAGYDNGKKAPGRCSPYIPGYGQHCQDGRSGYEAYQVSHNLLLSHAYAVDAFRNCKQCAGGKIGIAHSPAWFEPQDLEHVGGSIERVLDFILGWHLAPTTYGDYPQSMKDRVGHRLPKFTEAEKKLLKGSTDYVGMNYYTSVFAKEISPDPKSPSWTTDSLVDWDSKSVDGYKIGSKPFNGKLDVYSKGLRYLLKYIKDNYGDPEVIIAENGYGEDLGEKHNDVNFGTQDHNRKYYIQRHLLSMHDAICKDKVNVTGYFVWSLMDNFEWQDGYKARFGLYYIDFQNNLTRHQKVSGKWYSEFLKPQFPTSKLREEL", "modifications": "left off: small tags and cut ends"}, "B2": {"name": "AtBG1[E207Q]:HA: HA tagged AtBG1 with substitution mutation at position 207, an active site of β-glycosidase (protein, UniProt Q9SE50 27-528, looked up, variant E207Q)", "Beta-D-glucopyranosyl …": "B1 chain with E181Q", "modifications": "HA tag"}}, "key": {"'mutant atbg1' [1]": {"system": "'mutant atbg1'", "assay": "Leaf colour of 'mutant atbg1' after exogenous ABA", "assay_type": "in vivo, Arabidopsis thaliana", "conditions": "exogenous ABA applied to one week cultivated 'mutant atbg1', 3 more days of culture", "from_the_text": "Exogenous ABA was applied to one week cultivated ‘mutant atbg1’, followed by culture for 3 more days."}, "'mutant atbg1' [2]": {"system": "'mutant atbg1'", "assay": "Stomatal size of 'mutant atbg1' at night after ABA treatment", "assay_type": "in vivo, Arabidopsis thaliana", "conditions": "10 μM and 50 μM ABA at 23 o'clock, measured at 24 o'clock, n=200", "method": "(§1) Particularly, the transgenic plant was cultured at 20° C. with 70% relative humidity under 16/8 hour-light/dark cycle and the stomatal sizes were measured at noon and midnight (n=150) (FIG. 13).\n(§2) To investigate the effect of exogenous ABA on stomatal closure, the ‘mutant atbg1’ plant was treated with 10 μM and 50 μM of ABA at 23 o'clock and stomatal sizes were measured at 24 o'clock (FIG. 14). Control group was treated with 100 μM of NAME (L-nitroargininemethylester), known as […], during the time of stomatal disclosure, that is for 10 hours from 4 o'clock, and stomatal sizes were measured at midnight."}, "AtBG1:HA": {"system": "AtBG1:HA", "assay": "AtBG1 glycosylation in protoplasts, blotting with anti-HA antibody", "assay_type": "cell-based, Arabidopsis thaliana", "conditions": "anti-HA blot", "from_the_text": "To confirm the above result that AtBG1 localizes to ER, the present inventors examined AtBG1 glycosylation. Glycosylation of protein produces glycan and this glycan moiety of the protein localizing to the ER is sensitive to both endo-H and PNGase F, meaning the glycan moiety is easily digested by endo-H and PNGase F enzyme activities (Kuznetsov G. et al., J. Biol. Chem. 268: 2001, 1993). Tunicamycin is an inhibitor of the glycosylation.\nProtein extract obtained from protoplasts of AtBG1:HA transfected plant and treated with endo-H and PNGase F (not treated with tunicamycin), protein extract obtained from protoplasts of tunicamycin treated Arabidopsis thaliana transformed with AtBG1 and protein extract obtained from protoplasts of tunicamycin-non-treated Arabidopsis thaliana transformed with AtBG1 were examined by blotting using anti-HA antibody."}, "wild type": {"system": "wild type", "assay": "Stomatal size of wild type at midnight after NAME treatment", "assay_type": "in vivo, Arabidopsis thaliana", "conditions": "100 μM NAME for 10 hours from 4 o'clock, measured at midnight", "method": "as §1, §2"}, "[3]": {"assay": "ABA-GE hydrolysis by immunopurified AtBG1 proteins, ABA fraction by HPLC and ELISA", "assay_type": "biochemical, Arabidopsis thaliana", "conditions": "100 mM citrate buffer pH 5.5, 37° C., one and half hours"}}, "note": "Residue numbers refer to the chain shown, from its start. In names and notes the source's numbering stands. Entries after “also recorded” stand apart in the source; their conditions may differ."}
{"molecule": "CC1=CC(=O)CC(C)(C)[C@@]1(O)/C=C/C(C)=C\\C(=O)O", "note": "[ABA, abscisic acid]", "values": [{"measurement": "leaf colour phenotype", "setting": "'mutant atbg1' [1]", "value": "yellow leaf turned into normal green"}, {"measurement": "stomatal closure in the night", "setting": "'mutant atbg1' [2]", "value": "induced stomatal closure in the night"}]}
{"molecule": "Tunicamycin", "values": [{"measurement": "size of AtBG1:HA versus tunicamycin-non-treated protoplasts", "setting": "AtBG1:HA", "value": "smaller"}]}
{"molecule": "COC(=O)[C@@H](N)CCCNC(=N)N[N+](=O)[O-]", "note": "[NAME, L-nitroargininemethylester]", "values": [{"measurement": "stomatal closure", "setting": "wild type", "value": "defects in stomatal closure"}]}
{"molecule": "B1", "values": [{"measurement": "ABA generated from ABA-GE (HPLC peak / ELISA detection)", "setting": "[3]", "value": "novel peaks at the position for ABA; also recorded: hydrolyzes ABA-GE to form ABA"}, {"measurement": "ABA generated from ABA-GE (HPLC peak / ELISA detection)", "setting": "[3]; listed as wild type AtBG1 protein", "value": "high level of ABA"}]}
{"molecule": "B2", "values": [{"measurement": "ABA generated from ABA-GE (HPLC peak / ELISA detection)", "setting": "[3]", "value": "novel peaks at the position for ABA"}, {"measurement": "amount of ABA released from ABA-GE, relative to that of the wild type", "setting": "[3]; ABA peaks quantified by ELISA with anti-ABA antibody", "value": 20, "unit": "%"}]}
